Literature values as cited in US20090214682A1, “Composition and methods for weight loss in a subject” (priority 2008, published 2009).
Like-named read-outs stand apart in the source and are kept apart here.

Assays:
[1] = rats, high fat diet, 12 weeks
[2] = obese women
[3] = not given; remark: listed apart in the source
[4] = vs placebo
[5] = 8 weeks, overweight subjects, vs placebo
[6] = not given; remark: listed apart in the source
[7] = rats
[8] = not given; remark: listed apart in the source

Compound: Cn1c(=O)c2[nH]cnc2n(C)c1=O [theophylline, 3,7-dihydro-1,3-dimethyl-1H-purine-2,6-dione]
- body fat [1]: generally reduced

Compound: Cn1c(=O)c2c(ncn2C)n(C)c1=O [caffeine, 3,7-dihydro-1,3,7-trimethyl-1H-purine-2,6-dione]
- weight loss [2]: Significant weight loss
- body fat [1]: generally reduced
- abdominal adipose tissue weight ([1]; vs control group): significant decrease
- serum triglyceride levels ([1]; vs control group): significant decrease

Compound: [Cr] [Chromium]
- body fat (combined with exercise): reduce body fat
- lean mass (combined with exercise): increase lean mass
- HDL cholesterol (human, in vivo): increase HDL

Compound: CCCCCCCCCCCC(C[C@@H]1OC(=O)[C@H]1CCCCCC)OC(=O)[C@H](CC(C)C)NC=O (stereo partly drawn) [orlistat, N-formyl-L-leucine-1-[[(2S,3S)-3-hexyl-4oxo-2-oxetanyl]methyl]dodecyl ester]
- tolerability ([3]; 60 mg vs larger dose): generally better tolerated
- efficacy for weight loss relative to prescription dose ([3]; OTC 60 mg vs prescription 120 mg): about 85%
- inhibition of absorption of ingested fats ([3]; OTC dose 60 mg): about 25%
- average weight loss of initial body weight ([3]; OTC dose 60 mg, over 16 weeks): about 5%
- LDL cholesterol levels ([4]; one year treatment): greater improvements then placebo
- total serum cholesterol ([4]; one year treatment): greater improvements then placebo
- weight loss ([4]; persons with type 2 diabetes): more significant weight loss then the placebo group

Compound: chromium polynicotinate
- body fat [5]: significant loss of body fat
- systolic blood pressure ([6]; vs control groups): effective in lowering systolic blood pressure
- free radical damage in liver and kidney tissue ([6]; vs controls): less free radical damage

Compound: O=C(O)CC(O)(C(=O)O)C(O)C(=O)O (stereo not shown) [HCA, 1,2-dihydroxypropane-1,2,3-tricarboxylic acid]
- appetite [7]: repress appetite
- fatty acid synthesis [7]: inhibit fatty acid synthesis
- caloric intake ([8]; clinical studies): reduction in caloric intake
- blood cholesterol profile ([8]; daily, moderate exercise, 8 weeks): improved blood cholesterol profile
- weight loss ([8]; daily, moderate exercise, 8 weeks, vs placebo): increased weight loss
- serotonin levels ([8]; human, in vivo): significantly increased
- fat oxidation during exercise ([8]; untrained men and women): increasing fat oxidation
